“Also recorded” adds a separate entry of the source.
Key:
cancer cells = experiment: Taxol induced cancer cell death with pathway inhibitors/activators (FIGS. 4A-4D); type: cell-based; conditions: added to Taxol
Source text: The molecular mechanism involved in C6-ceramide induced chemosensitization effects was examined by focusing on taxol.
To further confirm the requirement of AMPK activation in this synergistic effect, siRNA directed against AMPK can be used.

L3.6 pancreatic cells = type: in vivo
Procedure: Treatment was started 4 days after L3.6 cell injection with thrice weekly (3×/wk) intraperitoneal (i.p.) injections of paclitaxel 3.0 mg/ml with or without C6-ceramide (10 mg/ml) for 2 weeks. Mouse survival (FIGS. 2A and 2C), tumor volume (in cm^3; FIG. 2B), mouse body weight (in grams) were recorded (FIG. 2E). The average rate of tumor development was calculated by total tumor volume dividing by total number of days monitored (FIG. 2C).
(§1) SCID/Beige/Taconic nude male mice (22-25 g; 6-8 weeks old) were ear tagged and randomized into 4 different groups (Control, Ceramide, gemcitabine, Ceramide+gemcitabine) combining 5 mice each prior to inoculation subcutaneous (s.c.) with 2×10^6 L3.6 cells in a 0.1 ml volume into the internal surface of the right thigh. Treatment was started 4 days after L3.6 cell injection with thrice weekly (3×/wk) intraperitoneal (i.p.) injections of gemcitabine (two doses: 5.0 and 10.0 mg/ml) with or without C6-ceramide (10 mg/ml) for 2 weeks. Mouse survival (FIGS. 3A, 3B, and 3E) and tumor volume (in cm^3; FIGS. 3C and 3D) were recorded (FIG. 3E). Pancreatic cancer cell lines, including L3.6 cells (FIG. 3F), Panc-1 cells (FIG. 3G) and MIA-PaCa2 cells (MIA, FIG. 3H) were cultured in basic DMEM medium and were treated with gemcitabine (Gem, 1 μg/ml). Mitomycin C was always present in the media to prevent cell proliferation from occurring.
SCID/Beige/Taconic male mice were inoculated with 2×10^6 L3.6 pancreatic cells and treated […] 4 days post tumor implant with thrice weekly (3×/wk) intraperitoneal (I.P.) injections of paclitaxel (taxol) 3.0 mg/ml or gemcitabine (Gem) 10 mg/ml after treatment and were autopsied when near death (as per IRB committee). Mouse survival, tumor volume (in cm^3), and body weight (in grams) were recorded. Average rate of tumor development was calculated by dividing total tumor volume by total number of days monitored.
(§2) The possible combination effect of C6-ceramide on gemcitabine-induced cytotoxicity (in vitro) and regression (in vivo) of the L3.6 pancreatic cancer cell was also tested according to the methods described in Examples 2 and 3.

[1] = system: L3.6 pancreatic cancer cells; experiment: Cell viability / cell death (MTT) in L3.6 pancreatic cancer cells; type: cell-based, human; conditions: LY 1 μM, rapamycin 100 nM, U0126 1 μg/ml; 48 hours
Procedure: L3.6 pancreatic cancer cells, cultured either in the basic DMEM medium or with 10% FBS, were treated with the indicated doses of taxol in the presence or absence of C6-ceramide (10 μg/ml) for 48 hours and cell viability was detected by MTT assay (FIGS. 1A-1B). L3.6 cells, cultured either in basic DMEM medium or with 10% FBS, were treated with the indicated dose of C6-ceramide in the presence or absence of taxol (1.5 μg/ml) for 48 hours and cell viability was detected by MTT assay (FIGS. 1C-1D). Mitomycin C (10 μg/ml) was always present in the media to prevent cell proliferation from occurring. The data represents the mean±SD of at least triplicate experiments. *P<0.05 versus group without C6-ceramide presents (FIGS. 1A-1B). **P<0.05 versus group without taxol presents (FIGS. 1C-1D).
as §1, with “FIGS. 3A-3H show synergistic anti-tumor effects of C6-ceramide and gemcitabine in vivo and in vitro. SCID/Beige/Taconic” for “SCID/Beige/Taconic”, “occurring. The data represent the mean±SD of at least triplicate experiments. *P<0.05 versus group without C6-ceramide presents. The experiments were repeated at least three times and similar results were observed.” for “occurring.”
(§3) Pancreatic cancer cell lines L3.6 cells were left untreated or treated with gemcitabine (Gem, 1 μg/ml) or taxol (1.5 μg/ml) in the presence or absence of C6-ceramide (10 μg/ml) for 2, 4 and 6 hours, AKT/mTORC1 and ERK activation were detected by Western Blot using indicated antibodies (FIGS. 5A and 5C). p-AKT (S473) and p-ERK at 4 hour time intervals for each treatment quantified (FIGS. 5B and 5D). L3.6 cells were pretreated with various inhibitors including PI3K/AKT inhibitor LY 294002 (LY, 1 μM), mTORC1 inhibitor rapamycin (100 nM), MEK/ERK inhibitor U0126 (1 μg/ml) or gemcitabine (1 μg/ml) for 48 hours, cell death was detected 48 hours later (FIG. 5E). The effects of the various inhibitors described above on AKT/mTORC1 and ERK activation were also detected by Western Blots using commercial available antibodies (FIG. 5F). *P<0.05 versus group without C6-ceramide presents. The experiments were repeated at least three times and similar results were observed.
Cell viability was measured by the 3-[4m5-dimethylthylthiazol-2-y]-2.5 diphenyltetrazolium bromide (MTT) method, as described in Cao et al. (2009) Sci. Signal, 2:RA17. Briefly, the cells were collected and seeded in 96-well plate at a density of 2×10^5 cells/cm^2. Different seeding densities were optimized at the beginning of the experiments. After overnight incubation cells were exposed to fresh medium containing indicated reagents at 37° C. After incubation for different time periods, 20 ul of MTT tetrazolium (Sigma, St. Louis, Mo.) salt dissolved in Hank's balanced solution at a concentration of 5 mg/ml was added to each well and incubated in a CO2 incubator for an additional 4 hours. The medium was subsequently aspirated from each well and 150 ul of DMSO (Sigma, St. Louis, Mo.) was added to dissolve formazan crystals and the absorbance of each well was obtained using a Dynatech MR5000 plate reader at a test wavelength of 490 nm with a reference wavelength of 630 nm. […]

Panc-1 cells = experiment: Cell death in Panc-1 pancreatic cancer cells; type: cell-based; conditions: Panc-1; gemcitabine 1.5 μg/ml
Procedure: as §1, with “FIGS. 3A-3H show synergistic anti-tumor effects of C6-ceramide and gemcitabine in vivo and in vitro. SCID/Beige/Taconic” for “SCID/Beige/Taconic”, “Pancreatic cancer cell lines, including L3.6 cells (FIG. 3F), Panc-1 cells (FIG. 3G) and MIA-PaCa2 cells (MIA, FIG. 3H) were cultured in basic DMEM medium and were treated with gemcitabine (Gem, 1 μg/ml).” left out, “occurring. The data represent the mean±SD of at least triplicate experiments. *P<0.05 versus group without C6-ceramide presents. The experiments were repeated at least three times and similar results were observed.” for “occurring.”
(§4) Cell viability was measured by the 3-[4m5-dimethylthylthiazol-2-y]-2.5 diphenyltetrazolium bromide (MTT) method, as described in Cao et al. (2009) Sci. Signal, 2:RA17. Briefly, the cells were collected and seeded in 96-well plate at a density of 2×10^5 cells/cm^2. Different seeding densities were optimized at the beginning of the experiments. […] The medium was subsequently aspirated from each well and 150 ul of DMSO (Sigma, St. Louis, Mo.) was added to dissolve formazan crystals and the absorbance of each well was obtained using a Dynatech MR5000 plate reader at a test wavelength of 490 nm with a reference wavelength of 630 nm.
as §2, with “and 3. […] A synergistic anti-tumor effect of gemcitabine and C6-ceramide in multiple pancreatic cancer cells in vitro was also determined.” for “and 3.”

MIA-PaCa2 cells = experiment: Cell death in MIA-PaCa2 pancreatic cancer cells; type: cell-based; conditions: MIA cells; gemcitabine 1.5 μg/ml
Procedure: as §1, with “FIGS. 3A-3H show synergistic anti-tumor effects of C6-ceramide and gemcitabine in vivo and in vitro. SCID/Beige/Taconic” for “SCID/Beige/Taconic”, “Pancreatic cancer cell lines, including L3.6 cells (FIG. 3F), Panc-1 cells (FIG. 3G) and MIA-PaCa2 cells (MIA, FIG. 3H) were cultured in basic DMEM medium and were treated with gemcitabine (Gem, 1 μg/ml).” left out, “occurring. The data represent the mean±SD of at least triplicate experiments. *P<0.05 versus group without C6-ceramide presents. The experiments were repeated at least three times and similar results were observed.” for “occurring.”
as §4
as §2, with “and 3. […] A synergistic anti-tumor effect of gemcitabine and C6-ceramide in multiple pancreatic cancer cells in vitro was also determined.” for “and 3.”

AKT/mTORC1 = experiment: Western Blot of AKT/mTORC1 activation in L3.6 cells; type: cell-based
Procedure: as §3, with “5E).” for “5E). The effects of the various inhibitors described above on AKT/mTORC1 and ERK activation were also detected by Western Blots using commercial available antibodies (FIG. 5F). *P<0.05 versus group without C6-ceramide presents. The experiments were repeated at least three times and similar results were observed.”
(§5) As described in Cao et al. (2009) Sci. Signal, 2:RA17, aliquots of 30-40 μg of protein from each sample (treated as indicated in the legends) were separated by 10% SDS-polyacrylamide gel electrophoresis (SDS-PAGE) and transferred onto a polyvinylidene difluoride (PVDF) membrane (Millipore, Bedford, Mass.). After blocking with 10% instant nonfat dry milk for 1 hour, membranes were incubated with specific antibodies overnight at 4° C. followed by incubation with secondary antibodies (HRP-conjugated anti-rabbit or anti-mouse IgG at the appropriate dilutions) for 60 minutes to 1 hour at room temperature. Antibody binding was detected with the enhanced chemiluminescence (ECL) detection system (Amersham Biosciences, Piscataway, N.J.).

ERK = experiment: Western Blot of ERK activation in L3.6 cells; type: cell-based
Procedure: as §3, with “5E).” for “5E). The effects of the various inhibitors described above on AKT/mTORC1 and ERK activation were also detected by Western Blots using commercial available antibodies (FIG. 5F). *P<0.05 versus group without C6-ceramide presents. The experiments were repeated at least three times and similar results were observed.”
as §5

[2] = system: L3.6 pancreatic cancer cells; experiment: Cell viability / cell death (MTT) in L3.6 pancreatic cancer cells; type: cell-based, human; conditions: gemcitabine 1.5 μg/ml

NC(=O)c1ncn([C@@H]2O[C@H](CO)[C@@H](O)[C@H]2O)c1N [AICAR]
effect on Taxol induced cancer cell death (cancer cells): enhance

CCCCCCCCCCCCCCCCCCOC[C@H](COP(=O)(O)O[C@H]1[C@H](O)[C@@H](O)[C@H](O)C[C@H]1OC)OC [AKT inhibitor II]
Taxol induced cell death in vivo (L3.6 pancreatic cells; inhibitor plus taxol, pancreatic cancer model SCID mice, expected): enhance | effect on Taxol induced cancer cell death (cancer cells): enhance

c1cc(-c2cnn3cc(-c4ccc(OCCN5CCCCC5)cc4)cnc23)ccn1 [Compound C]
effect on Taxol induced cancer cell death (cancer cells): inhibits

N#CC(=C(N)Sc1ccccc1N)C(C#N)=C(N)Sc1ccccc1N [U0126, 1,4-diamino-2,3-dicyano-1,4-bis [2-aminophenylthio]butadiene]
effect on gemcitabine induced L3.6 cell death [1]: largely enhanced; also recorded: sensitized | effect on taxol induced L3.6 cell death [1]: largely enhanced; also recorded: sensitized

Nc1ccn([C@@H]2O[C@H](CO)[C@@H](O)C2(F)F)c(=O)n1 [gemcitabine]
cancer cell death (Panc-1 cells): moderate effect | cancer cell death (MIA-PaCa2 cells): moderate effect | anti-tumor effect (L3.6 pancreatic cells; gemcitabine 10 mg/kg): moderate anti-tumor effect | survival and tumor growth (L3.6 pancreatic cells; low dose gemcitabine 5 mg/kg): limited effect | AKT/mTORC1 activation / signaling (AKT/mTORC1; L3.6 cells, Western Blot): no effect | PI3K/AKT/mTOR activation (AKT/mTORC1; Taxol alone): no effect | effect on C6-ceramide induced AKT de-phosphorylation or inhibition (AKT/mTORC1; added to C6-ceramide): dramatically enhanced | ERK activation / signaling (ERK; L3.6 cells, Western Blot): no effect | effect on C6-ceramide inhibition of ERK activation (ERK; added to C6-ceramide): enhanced | cancer cell death [2]: moderate effect
